Results as given in article PMC11249646, “Small-Molecule Disruptors of the Interaction between Calcium- and Integrin-Binding Protein 1 and Integrin αIIbβ3 as Novel Antiplatelet Agents” (ACS Pharmacology & Translational Science, 2024).
pIC50: −log10 of the molar value. Converted amounts (≈) assume the structure as drawn. Read-outs that look alike come from different tables or passages of the source. One block for each compound: values may come before it.

Assays:
[1] = In vitro ADME: solubility; type: physicochemical
[2] = target: T1, CIB1 and αIIb interaction (CIB1-GST : F-αIIb peptide) (Homo sapiens, UniProt Q99828); test: FP assay, 1536-well qHTS format (primary and confirmatory screen); type: binding; details: for Confirm? (confirmatory screen): YES/NO; for IC50: read-out: IC50 [μM] (confirmatory screen)
T1 construct: made in house; host or cells: BL-21 plus RIL cells (E. coli)
T1 sequence (Q99828 1-191): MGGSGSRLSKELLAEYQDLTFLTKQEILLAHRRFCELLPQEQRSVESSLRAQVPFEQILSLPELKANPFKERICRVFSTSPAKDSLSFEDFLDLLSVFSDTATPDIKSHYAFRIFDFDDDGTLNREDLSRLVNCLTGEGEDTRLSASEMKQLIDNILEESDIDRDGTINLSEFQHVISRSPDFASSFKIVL

[3] = In vitro ADME: PAMPA permeability
[4] = tested on: washed human platelets; test: Human platelet aggregation assay (thrombin-induced); type: cell-based; details: for inhibition at 10 µM: Homo sapiens, Platelet, single concentration of 10 μM (n = 3), thrombin; for Thrombin Assay 10 µM (%): platelet aggregation inhibition at 10 µM
Description: A classical challenge in target-based drug discovery is moving from biochemical to cellular assay and the essential step of determining if the compounds of interest can perform in a cellular context. After characterization of the compounds in a series of biochemical assay formats, our next step was to assess their activity in a cellular environment. Our previous studies have shown that the interaction of the cytoplasmic domain of integrin αIIbβ3, a key regulator of platelet aggregation, with CIB1, is involved in downstream signaling in platelet activation and aggregation. We sought to determine whether our candidate compounds were inhibiting this interaction by evaluating them for platelet function in a human platelet aggregation assay. We prepared platelet-rich plasma (PRP) and washed the platelets as previously described[44] and then performed a platelet aggregation assay using the washed platelet suspensions (2 × 10^8/platelets/mL) followed by the recording of aggregation traces (see Materials and Methods Section). To induce platelet aggregation, 0.03 U/mL of thrombin, a physiological agonist of platelet activation, was used.
Figure 6 Effect of compounds on human platelet activation. Representative platelet aggregation tracings of washed human platelet suspensions pretreated for 30 min at 37 °C with vehicle (DMSO) or compounds at indicated concentrations followed by activation with thrombin (0.03–0.1 U/mL). Panel (A): NCGC00071855. Panel (B–D): NCGC00351170. Panel (E): CD62P exposure was in the presence of NCGC00351170. Data represents mean ± SEM, n = 4 individual experiments; ns = non significant *P < 0.05, ***P < 0.001, ****P < 0.0001.
Whole blood was drawn by venipuncture from healthy adult volunteers (of both gender and race) with informed consent. Approval was obtained from the institutional review boards of Thomas Jefferson University, according to the Declaration of Helsinki. Blood was collected in acidified citrate dextrose as an anticoagulant. Platelet-rich plasma (PRP) and washed platelets were prepared, as previously described.[44] Platelet aggregation was performed using washed platelet suspensions containing 2 × 10^8 platelets/mL using a Chrono-Log Lumi-Aggregometer (Chrono-Log), as described previously.[11] Aggregation traces were recorded by using Aggrolink software (Chrono-Log). Thrombin-induced P-selectin (CD62P) exposure was performed using Accuri C6 flowcytometer (BD Bioscience) as described previously.[11]
Figure S9: Effect of compounds on human platelet activation. Representative platelet aggregation
tracings of washed human platelet suspensions treated with vehicle (DMSO) or indicated
compounds at 10 μM for 30 minutes at 37 °C followed by activation with thrombin (0.03U/mL).

[5] = target: T2, CIB1 and αIIb interaction (GST-CIB1 : F-αIIb peptide) (Homo sapiens, UniProt Q99828); test: FP assay, 384-well format (screen); type: binding; set-up: 384-well SCREEN Efficacy (%): concentration or dose not given beside the values
T2 construct: made in house; host or cells: BL-21 plus RIL cells (E. coli)
T2 sequence (Q99828 1-191): T1 sequence (Q99828 1-191)

[6] = target: T3, GST-CIB1 : F-scrambled peptide (Homo sapiens, UniProt Q99828); test: FP scrambled-peptide counter screen, 1536-well format; type: binding; details: for Curve Class (counterscreen): negative sign = inhibitory curve; for Efficacy (%) (counterscreen) / Curve Class (counterscreen) / IC50: counterscreen; for IC50: read-out: IC50 [μM] (counterscreen)
T3 construct: made in house; host or cells: BL-21 plus RIL cells (E. coli)
T3 sequence (Q99828 1-191): T1 sequence (Q99828 1-191)

[7] = target: T3, GST-CIB1 : F-scrambled peptide; test: FP scrambled-peptide counter screen, 384-well format; type: binding; details: for pIC50: read-out: 384-well COUNTERSCREEN IC50
[8] = target: T4, GST-CIB1:F-αIIb interaction (Homo sapiens, UniProt Q99828); test: Gel-based (in-gel) binding assay
T4 construct: made in house; host or cells: BL-21 plus RIL cells (E. coli)
T4 sequence (Q99828 1-191): T1 sequence (Q99828 1-191)

[9] = target: T5, GST-CIB1 : F-αIIb peptide (Homo sapiens, UniProt Q99828); test: FP assay in the presence of glutathione (GSH), thiol reactivity; type: binding
T5 construct: made in house; host or cells: BL-21 plus RIL cells (E. coli)
T5 sequence (Q99828 1-191): T1 sequence (Q99828 1-191)

[10] = qHTS primary screen hits, Table S2, negative = inhibition
[11] = qHTS primary screen hits, Table S2, read-out: IC50
[12] = 384-well FP assay, Table 1, read-out: FP assay IC50
[13] = confirmatory screen, qHTS curve class, negative sign = inhibitory curve
[14] = qHTS FP screen hits, Table S2, negative = inhibition
[15] = qHTS FP screen hits, Table S2, one class per curve where COUNT > 1, negative sign = inhibitory curve
[16] = qHTS FP screen hits, Table S2, read-out: IC50

Compound: O=C(O)C(F)(F)F.O=C(c1cccs1)c1no[n+]([O-])c1C(=O)c1cccs1 [NCGC00071855-05]
solubility ([1]; read-out: Solubility): 0.018 mg/mL
Efficacy (%) [2, 10]: -48%
Curve Class ([2]; qHTS primary screen hits, Table S2, negative sign = inhibitory curve, several classes where COUNT > 1): -1.2
pIC50 [2, 11]: 4.94
Papp [3]: 1870 nm/s

Compound: O=C(O)C(F)(F)F.O=C(c1ccc(F)cc1)c1no[n+]([O-])c1C(=O)c1ccc(F)cc1 [NCGC00351162-01]
solubility ([1]; read-out: Solubility): > 0.049 mg/mL
Efficacy (%) (confirmatory screen) ([2]; confirmatory screen): -69%
Confirm? (confirmatory screen) ([2]; confirmatory screen): YES
Curve Class (confirmatory screen) [2, 13]: -1.2
IC50 ([2]; confirmatory screen): 12.6 µM
Efficacy (%) (counterscreen) [6]: -68%
Curve Class (counterscreen) ([6]; qHTS curve class): -2.2
IC50 [6]: 35.5 µM
Papp [3]: 60.1 nm/s

Compound: Cc1ccc(C(=O)c2no[n+]([O-])c2C(=O)c2ccc(C)cc2)cc1.O=C(O)C(F)(F)F [NCGC00351163-01]
inhibition at 10 µM [4]: 96%
Thrombin Assay 10 µM (%) [4]: 96%
solubility ([1]; read-out: Solubility): 0.012 mg/mL
Efficacy (%) (confirmatory screen) ([2]; confirmatory screen): -51%
Confirm? (confirmatory screen) ([2]; confirmatory screen): YES
Curve Class (confirmatory screen) [2, 13]: -1.4
IC50 ([2]; confirmatory screen): 5.6 µM
Efficacy (%) [2, 14]: -47%
Curve Class [2, 15]: -1.2
pIC50 [2, 16]: 4.95
Efficacy (%) (counterscreen) [6]: -36%
Curve Class (counterscreen) ([6]; qHTS curve class): -1.2
IC50 [6]: 4 µM
pIC50 [5, 12]: 5.18

Compound: CC(C)=CCC[C@]1(C)C=Cc2c(O)c3c(c(CC=C(C)C)c2O1)O[C@]12C(=C[C@@H]4CC1C(C)(C)O[C@@]2(C/C=C(/C)C(=O)O)C4=O)C3=O [NCGC00485239-01]
384-well COUNTERSCREEN Efficacy (%) ([7]; F-scrambled peptide): 40%
384-well COUNTERSCREEN Confirm? ([7]; F-scrambled peptide, *: Curve in opposite direction): YES
pIC50 ([7]; F-scrambled peptide): < 3.92
Active in Gel Assay? ([8]; 1 μM GST-CIB1, 400 nM F-αIIb, 60 μM, 1:2, 4-points): YES
Inhibited concentration in gel (µM) ([8]; 1 μM GST-CIB1, 400 nM F-αIIb, concentrations tested 60, 30, 15, 7.5): 60,30 µM
CONFIRMATORY SCREEN Confirm? ([2]; confirmatory screen, YES/NO call): YES
CONFIRMATORY SCREEN Curve Class [2, 13]: -1.2
CONFIRMATORY SCREEN Efficacy (%) ([2]; confirmatory screen, negative = inhibition): -54%
pIC50 ([2]; confirmatory screen, read-out: CONFIRMATORY SCREEN IC50): 5.05
Efficacy (%) [2, 14]: -34%
Curve Class [2, 15]: -1.2
pIC50 [2, 16]: 4.95
pIC50 ([9]; FP assay in the presence of glutathione (GSH +), read-out: GSH (+) Assay IC50): 5.62
pIC50 ([9]; FP assay without glutathione (GSH -), read-out: GSH (-) Assay IC50): 5.70
GSH/CIB1 IC50 ratio ([9]; ratio of GSH (+) IC50 to GSH (-) IC50): 1.2
GSH Assay Result ([9]; thiol reactivity call: No change / Active): No change
COUNTERSCREEN Efficacy (%) ([6]; scrambled-peptide counterscreen): 32%
COUNTERSCREEN Confirm? ([6]; scrambled-peptide counterscreen, YES/NO call): YES
COUNTERSCREEN Curve Class ([6]; scrambled-peptide counterscreen, qHTS curve class): 1.4
pIC50 ([6]; scrambled-peptide counterscreen, read-out: COUNTERSCREEN IC50): 4.90
384-well SCREEN Efficacy (%) ([5]; F-αIIb peptide): 60%
384-well SCREEN Confirm? ([5]; F-αIIb peptide, YES/NO): YES
pIC50 ([5]; F-αIIb peptide, read-out: 384-well SCREEN IC50): 5.44

Compound: thimerosal [NCGC00178879-04, reference compound]
384-well COUNTERSCREEN Confirm? [7]: YES
384-well COUNTERSCREEN Efficacy (%) [7]: 45%
pIC50 [7]: 5.15
Active in Gel Assay? [8]: YES
CONFIRMATORY SCREEN Confirm? [2]: YES
CONFIRMATORY SCREEN Curve Class [2]: -1.2
CONFIRMATORY SCREEN Efficacy (%) [2]: -53%
Curve Class [2]: -1.2
Efficacy (%) [2]: -74%
pIC50 ([2]; read-out: CONFIRMATORY SCREEN IC50): 4.75
pIC50 ([2]; read-out: IC50): 4.65
pIC50 ([9]; read-out: GSH (+) Assay IC50): 4.45
pIC50 ([9]; read-out: GSH (-) Assay IC50): 6.50
COUNTERSCREEN Confirm? [6]: YES
COUNTERSCREEN Curve Class [6]: 3
COUNTERSCREEN Efficacy (%) [6]: 150%
384-well SCREEN Confirm? [5]: YES
384-well SCREEN Efficacy (%) [5]: 77%
pIC50 ([5]; read-out: 384-well SCREEN IC50): 5.55

The next lines start with results.

solubility [1]: 0.014 mg/mL (≈ 45.7 µM)
PAMPA [3]: 153 10-6 cm/s
Compound: O=C(c1cccs1)c1no[n+]([O-])c1C(=O)c1cccs1 [NCGC00071855-06]

solubility ([1]; read-out: Solubility): 0.005 mg/mL (≈ 9.87 µM)
Papp [3]: 57.4 nm/s
pIC50 [5, 12]: 4.68
Compound: O=C(c1cccc(OCc2ccccc2)c1)c1no[n+]([O-])c1C(=O)c1cccc(OCc2ccccc2)c1 [NCGC00351160-01]
inhibition at 10 µM [4]: 49%
Thrombin Assay 10 µM (%) [4]: 49%

solubility ([1]; read-out: Solubility): 0.034 mg/mL (≈ 103 µM)
Efficacy (%) [2, 10]: -58%
pIC50 [2, 11]: 4.58
pIC50 [5, 12]: 5.12
IC50 ([5]; log of IC50 in M (negative values), 384-well FP assay, read-out: FP Assay LOG IC50 (converted)): 7.41 µM
Compound: O=C(c1ccc(F)cc1)c1no[n+]([O-])c1C(=O)c1ccc(F)cc1 [NCGC00351162-02]
inhibition at 10 µM [4]: 97%
Thrombin Assay 10 µM (%) [4]: 97%

solubility ([1]; read-out: Solubility): > 0.064 mg/mL
Papp [3]: 110 nm/s
pIC50 [5, 12]: 5.14
Compound: O=C(c1ccc(C(F)(F)F)cc1)c1no[n+]([O-])c1C(=O)c1ccc(C(F)(F)F)cc1 [NCGC00351164-01]
inhibition at 10 µM [4]: 98%
Thrombin Assay 10 µM (%) [4]: 98%

solubility [1]: > 0.043 mg/mL
PAMPA [3]: < 1 10-6 cm/s
Compound: O=C(c1ccccc1)c1no[n+]([O-])c1C(=O)c1ccccc1 [NCGC00351168-01]

solubility ([1]; read-out: Solubility): 0.023 mg/mL (≈ 102 µM)
Papp [3]: 1300 nm/s
Compound: O=C(c1cccs1)c1no[n+]([O-])c1CO [NCGC00354607-01]
inhibition at 10 µM [4]: 14%
Thrombin Assay 10 µM (%) [4]: 14%
